Test results from US20040235869A1, “Nucleoside analog inhibitors of reverse transcriptase” (priority 2003, published 2004).

Columns and labels:
[1] = target: HIV reverse transcriptase (Human immunodeficiency virus type 1 group M subtype B, UniProt P04585); experiment: HIV reverse transcriptase inhibition primer extension experiment (incorporation of nucleoside triphosphates into DNA by RT, chain termination); assay type: biochemical; conditions: triphosphate form; template SEQ ID NO:1, primer SEQ ID NO:2; terminated product 38 instead of 53 base pairs; FIG. 2
Description: For primer extension experiments (Example 3), some of the novel nucleoside analog inhibitors were converted to triphosphate form in vitro, such as occurs in mammalian cells by endogenous enzymes.
Once incorporated into the growing DNA strand, transcription is terminated because the nucleosides lack the necessary 3′ hydroxyl group.
The method is analogous to the Sanger sequencing. Specifically, in the presence of a template and four natural nucleotide triphosphates (dATP, dGTP, dCTP and dTTP), a radiolabeled primer is extended to full length by RT, as indicated by a single band on the sequencing gel. Addition of ddTTP, which competes with dTTP, results in the termination of primer extension at the positions of nucleotides opposite adenosine in the template strand. AZTTP, which is also a chain terminator, gives a similar result as ddTTP. If a compounds, e.g., (V) to (VII), in triphosphate form has a branched 3′-group that cannot be accommodated in the 3′-pocket of RT, the compound is not a substrate for RT. Therefore, it will be unable to compete with dTTP, resulting in a completed, extended product. […]
Template cagatagtcttcacgaggcaggtcgtcttgtcctggtActcgtttgcgttccg (SEQ ID NO:1) and primer […] […] With this template and primer, there is only one adenosine in the template to be read into the growing chain as a thymidine (capital and boldface in SEQ ID NO:1). […]

[2] = taken with ddI (Videx or Videx EC); cited from earlier work
[3] = 300 mg x 2/day; cited from earlier work
[4] = nitrogen at the 3'-branched group; Hossain et al., 1993; Huang et al., 1995; cited from earlier work

Q: For `Cc1cn([C@H]2C[C@H](N=[N+]=[N-])[C@@H](CO[P@](=O)(O)O[P@](=O)(O)OP(=O)(O)O)O2)c(=O)[nH]c1=O` [AZTTP, AZT-triphosphate], which “chain termination of the primer extension opposite the only A in the template (substrate for RT)” value [1] is on record?
A: Its value is “chain terminators”.

Q: Which “increase of ddI levels in the blood” value [2] does the source give for `CC(C)OC(=O)OCOP(=O)(CO[C@H](C)Cn1cnc2c(N)ncnc21)OCOC(=O)OC(C)C` [Viread, tenofovir DF] here?
A: The value was ≤ 60%, causing increased.

Q: For `Nc1nc(NC2CC2)c2ncn([C@H]3C=C[C@@H](CO)C3)c2n1` [Ziagen, abacavir], which “Serious allergic reactions, share of patients” value [3] is on record?
A: Its value is “Serious allergic reactions in about 3-5% of patients”.

Q: For `Cc1cn([C@H]2CC[C@@H](COP(=O)(O)OP(=O)(O)OP(=O)(O)O)O2)c(=O)[nH]c1=O` [ddTTP], which “chain termination of the primer extension opposite the only A in the template (substrate for RT)” value [1] is on record?
A: Its value is “chain terminators”.

Q: For `Cc1cn([C@H]2CC([N+](=O)[O-])[C@@H](CO)O2)c(=O)[nH]c1=O` (some centres unmarked) [molecule (I)], which effectiveness in vivo [4] is on record?
A: The effectiveness in vivo was “ineffective in vivo”.
